The subject of assay [1] is AR, ERα, GR and PR. The assay can be described thus: selectivity assays GAL4-AR, GAL4-ERα, GAL4-GR and GAL4-PR, antagonist mode. Format: cell-based. As to conditions: antagonist activity against MR compared to AR. Here is the method:
In certain cases, compounds were also evaluated for activity in selectivity assays with other steroid hormone receptor members, including AR, ER, GR and PR, as well as GAL4 alone. Steroid receptors used for selectivity assays were essentially generated as described above for pCMX-GAL4-MR, and comprised the LBD and a portion of the hinge region of the nuclear receptor of interest cloned in frame into the vector pCMX-GAL4 (Perlmann et al., 1993,Genes & Development 7:1411-1422) as described above.
Assays run in antagonist mode included agonists as follows: AR; 25 nM dihydrotestosterone (DHT), ER; 4.5 nM estradiol, GR; 20 nM dexamethasone, and PR; 2 nM medroxyprogesterone (MPA), respectively. Assays run in agonist mode contained no supplemental compounds.
(§1) The following table provides in vitro MR activity data of representative compounds described in the Examples. […] The “+” mark under the selectivity column is given to those compounds having greater than ten-fold antagonist activity against MR compared to at least one nuclear receptor selected from AR, ERα, GR and PR, as determined from the GAL4-AR, GAL4-ERα, GAL4-GR and GAL4-PR assays. The “++” mark under the selectivity column identifies those compounds having greater than ten-fold antagonist activity against MR compared to the four nuclear receptors AR, ERα, GR and PR, as determined from the GAL4-AR, GAL4-ERα, GAL4-GR and GAL4-PR assays.

Assay [2] has as its target T1, human MR (Homo sapiens, UniProt P08235).
T1 construct: expressed in transfected cells; host or cells: CV-1 (African Green Monkey Kidney Cells), transiently transfected with pCMX-GAL4-MR
T1 sequence (P08235 671-984): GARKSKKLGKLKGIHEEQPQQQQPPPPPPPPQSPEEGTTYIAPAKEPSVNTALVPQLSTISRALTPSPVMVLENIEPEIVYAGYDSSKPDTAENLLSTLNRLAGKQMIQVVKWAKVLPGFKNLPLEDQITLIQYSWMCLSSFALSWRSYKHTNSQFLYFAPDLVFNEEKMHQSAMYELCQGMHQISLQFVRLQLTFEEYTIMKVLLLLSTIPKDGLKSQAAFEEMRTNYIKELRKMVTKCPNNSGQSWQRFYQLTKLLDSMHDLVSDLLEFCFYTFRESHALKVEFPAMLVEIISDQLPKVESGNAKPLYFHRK
The assay can be described thus: GAL4-MR cell based assay, antagonist format. As to the method:
Compound activity was determined in a cell-based assay using a GAL4-MR chimera to identify compounds with the ability to modulate MR activity.
The pCMX-GAL4-MR expression plasmid was constructed by cloning nucleotides encoding amino acids 671 to 984 of human MR (see GenBank sequence AAA59571) into the vector pCMX-GAL4 (Perlmann et al., 1993,Genes & Development 7:1411-1422) comprising nucleotides encoding for amino acids 1-147 of the GAL4 DNA binding domain.
The TK-MH 100x4-Luc (GAL4UAS-TK-Luciferase) reporter construct was constructed by insertion of four copies of the Gal4 UAS (Kang et al. 1993, J. Biol. Chem. 268:9629-9635) into the Hind III site of TK-Luc. The parental plasmid, TK-Luc, was prepared by insertion of the Herpes simplex virus thymidine kinase gene promoter (−105 to +51) obtained from the plasmid pBLCAT2 by digestion with HindIII and XhoI (described in Luckow et al., 1987, Nuc. Acid. Res. 15:5490) into the plasmid MMTV-LUC described by Hollenberg and Evans, 1988, Cell 55:899-906) after removal of MMTV-LTR promoter sequence from MMTV-LUC via digestion with HindIII and XhoI. Correct cloning was confirmed by restriction digestion and/or sequencing.
Assays were performed using CV-1 (African Green Monkey Kidney Cells) (ATCC) cells grown in T175 flasks at a density of 3×10^6 cells/flask in DMEM with 5% FBS. Cells were transfected one day after plating at 70-80 percent confluency with a DNA mixture containing (per T175 flask) 9 […] pCMX-GAL4-MR, 9 μg TK-MH100x4-Luc, and 2 μg pCMX β-Gal using the transfection reagent FuGENE6 (Roche Molecular Biochemicals, Indianapolis, Ind.) following recommended protocols and instructions provided by the manufacturer, and incubated with transfection reagents for 5 hours at 37° C.
Transfected cells were trypsinized, resuspended in media, and 45 μL was added to assay plates at a density of approximately 5,000 cells/well using a MultiDrop dispenser (MTX Lab Systems, Inc., VA). The assay plates containing both compounds and screening cells were incubated for approximately 20 hours at 37° C. and 5% CO2 in a tissue culture incubator.
After incubation of the transfected cells with compounds, Lysis buffer (1% Triton X-100, 10% Glycerol, 5 mM DTT, 1 mM EGTA, 25 mM Tricine, pH 7.8) and Luciferin assay buffer (0.73 mM ATP, 22.3 mM Tricine, 0.11 mM EDTA, 33.3 mM DTT, 0.2M MgSO4, 11 mM Luciferin, 6.1 mM Coenzyme A, 0.01 mM HEPES, pH 7.8) were prepared. Media was removed from the plates and lysis buffer and luciferin assay buffer mixed in a 1:1 ratio and then 30 μl of the mixture was added to each well using a Multidrop dispenser. Plates were read on the Northstar (Applied Biosystems, Foster City, Calif.) and data was analyzed using ActivityBase (ID Business Solutions, Ltd., Guildford, Surrey, UK). If required, luciferase values may be normalized for transfection efficiency by measuring β-galactosidase activity based on expression from the pCMX-βGal expression plasmid as described previously (Willy et al., 1995, Gene & Development, 9:1033-1045).
as §1

As a reminder, the IC50 is the point on the concentration scale where inhibition reaches its midpoint.

With `Cc1nc(C(=O)Nc2ccc(S(C)(=O)=O)cc2)n(C)c1-c1ccccc1Oc1ccccc1` [1,4-dimethyl-5-(2-phenoxy-phenyl)-1H-imidazole-2-carboxylic acid (4-methanesulfonyl-phenyl)-amide], the Selectivity result in assay [1] is “++ (greater than ten-fold antagonist activity against MR compared to the four nuclear receptors AR, ERα, GR and PR)”. The IC50 in assay [2] is < 500 nM.

Take `Cc1c(C(=O)Nc2ccc(S(C)(=O)=O)cc2)nn(C)c1-c1ccccc1C(F)(F)F` [1,4-dimethyl-5-(2-trifluoromethyl-phenyl)-1H-pyrazole-3-carboxylic acid (4-methanesulfonyl-phenyl)-amide]: the Selectivity result in assay [1] is “+ (greater than ten-fold antagonist activity against MR compared to at least one nuclear receptor selected from AR, ERα, GR and PR)”. For the same compound, the half-inhibitory concentration (IC50) in assay [2] is < 500 nM.

`Cc1c(C(=O)Nc2ccc(S(N)(=O)=O)cc2)cn(C)c1-c1ccccc1C(F)(F)F` [1,4-dimethyl-5-(2-trifluoromethyl-phenyl)-1H-pyrrole-3-carboxylic acid (4-sulfamoyl-phenyl)-amide]: in assay [1], the Selectivity entry was “++ (greater than ten-fold antagonist activity against MR compared to the four nuclear receptors AR, ERα, GR and PR)”. The IC50 in assay [2] was < 500 nM.

As for `Cc1cc(C(=O)Nc2ccc(S(C)(=O)=O)cc2)c(C)n1-c1ccccc1/C=C/C(C)(C)C` [1-[2-((E)-3,3-Dimethyl-but-1-enyl)-phenyl]-2,5-dimethyl-1H-pyrrole-3-carboxylic acid (4-methanesulfonyl-phenyl)-amide], in assay [1], the Selectivity result was “++ (greater than ten-fold antagonist activity against MR compared to the four nuclear receptors AR, ERα, GR and PR)”. Further, in assay [2], the IC50 was < 500 nM.

As for `Cc1cc(C(=O)Nc2ccc(S(C)(=O)=O)cc2)c(C)n1-c1ccc(NC(=O)c2ccc(C(F)(F)F)cc2C(F)(F)F)cc1C(F)(F)F` [1-[4-(2,4-bis-trifluoromethyl-benzoylamino)-2-trifluoromethyl-phenyl]-2,5-dimethyl-1H-pyrrole-3-carboxylic acid (4-methanesulfonyl-phenyl)-amide], in assay [1], the Selectivity result is “+ (greater than ten-fold antagonist activity against MR compared to at least one nuclear receptor selected from AR, ERα, GR and PR)”. The same compound registered an IC50 in assay [2] of 1000 to 5000 nM.

On to `Cc1ccc(NC(=O)c2cc(C)n(-c3ccccc3C(F)(F)F)c2C)cc1Cl` [2,5-Dimethyl-1-(2-trifluoromethyl-phenyl)-1H-pyrrole-3-carboxylic acid (3-chloro-4-methyl-phenyl)-amide], for which the IC50 in assay [2] is < 500 nM.

Take `Cc1ccc(NC(=O)c2cc(C)n(-c3ccccc3C(F)(F)F)c2C)cc1F` [2,5-Dimethyl-1-(2-trifluoromethyl-phenyl)-1H-pyrrole-3-carboxylic acid (3-fluoro-4-methyl-phenyl)-amide]: the IC50 in assay [2] lay within 500 to 1000 nM.

Take `Cc1cc(C(=O)Nc2ccc(S(N)(=O)=O)cc2)c(C)n1-c1ccccc1C(F)(F)F` [2,5-Dimethyl-1-(2-trifluoromethyl-phenyl)-1H-pyrrole-3-carboxylic acid (4-sulfamoyl-phenyl)-amide]: the Selectivity entry in assay [1] was “++ (greater than ten-fold antagonist activity against MR compared to the four nuclear receptors AR, ERα, GR and PR)”. Besides, the IC50 in assay [2] was < 500 nM.

Turning to `Cc1cnc(NC(=O)c2cc(C)n(-c3ccccc3C(F)(F)F)c2C)s1` [2,5-Dimethyl-1-(2-trifluoromethyl-phenyl)-1H-pyrrole-3-carboxylic acid (5-methyl-thiazol-2-yl)-amide], the IC50 in assay [2] is < 500 nM.

Turning to `Cc1cc(C(=O)Nc2ccc3ccccc3c2)c(C)n1-c1ccccc1C(F)(F)F` [2,5-Dimethyl-1-(2-trifluoromethyl-phenyl)-1H-pyrrole-3-carboxylic acid naphthalen-2-ylamide], the half-inhibitory concentration (IC50) in assay [2] is < 500 nM.

`Cc1cc(C(=O)Nc2ccc(S(C)(=O)=O)cc2)c(C)n1-c1ccccc1C(=O)Nc1cccc([N+](=O)[O-])c1` [2,5-Dimethyl-1-[2-(3-nitro-phenylcarbamoyl)-phenyl]-1H-pyrrole-3-carboxylic acid (4-methanesulfonyl-phenyl)-amide]: the Selectivity result in assay [1] is “+ (greater than ten-fold antagonist activity against MR compared to at least one nuclear receptor selected from AR, ERα, GR and PR)”. This compound also returned a 50% inhibitory concentration (IC50) in assay [2] of 500 to 1000 nM.

In the case of `Cc1cc(C(=O)Nc2ccc(S(=O)(=O)NC(=N)N)cc2)c(C)n1-c1ccccc1C(F)(F)F` [2,5-Dimethyl-1-[2-(trifluoromethyl)phenyl]-1H-pyrrole-3-carboxylic acid (4-guanidinosulfonyl-phenyl)-amide], the Selectivity result in assay [1] was “+ (greater than ten-fold antagonist activity against MR compared to at least one nuclear receptor selected from AR, ERα, GR and PR)”. For the same compound, the IC50 in assay [2] was 1000 to 5000 nM.

Take `Cc1cc(C(=O)Nc2ccc(S(C)(=O)=O)cc2)c(C)n1-c1cccc2ccccc12` [2,5-Dimethyl-1-naphthalen-1-yl-1H-pyrrole-3-carboxylic acid (4-methanesulfonyl-phenyl)-amide]: the Selectivity result in assay [1] was “++ (greater than ten-fold antagonist activity against MR compared to the four nuclear receptors AR, ERα, GR and PR)”. The IC50 in assay [2] is < 500 nM.

In the case of `COc1cc(NC(=O)c2cc(C)n(-c3ccccc3C(F)(F)F)c2C)ccc1S(N)(=O)=O` [2,5-dimethyl-1-(2-trifluoromethyl-phenyl)-1H-pyrrole-3-carboxylic acid (3-methoxy-4-sulfamoyl-phenyl)-amide], the Selectivity result in assay [1] is “++ (greater than ten-fold antagonist activity against MR compared to the four nuclear receptors AR, ERα, GR and PR)”. For the same compound, the half-maximal inhibitory concentration (IC50) in assay [2] was < 500 nM.

Take `Cc1cc(C(=O)Nc2ccc(NS(C)(=O)=O)cc2)c(C)n1-c1ccccc1C(F)(F)F` [2,5-dimethyl-1-(2-trifluoromethyl-phenyl)-1H-pyrrole-3-carboxylic acid (4-methanesulfonylamino-phenyl)-amide]: the Selectivity entry in assay [1] is “+ (greater than ten-fold antagonist activity against MR compared to at least one nuclear receptor selected from AR, ERα, GR and PR)”. For the same compound, the IC50 in assay [2] was in the range of 500 to 1000 nM.

With `Cc1sc(C(=O)Nc2ccc(S(C)(=O)=O)cc2)c(C)c1-c1ccccc1C(F)(F)F` [3,5-dimethyl-4-(2-trifluoromethyl-phenyl)-thiophene-2-carboxylic acid (4-methanesulfonyl-phenyl)-amide], the IC50 in assay [2] was in the range of 500 to 1000 nM.

`Cc1c(C(=O)Nc2ccc(S(C)(=O)=O)cc2)ncn1-c1ccccc1C(F)(F)F` [5-methyl-1-(2-trifluoromethyl-phenyl)-1H-imidazole-4-carboxylic acid (4-methanesulfonyl-phenyl)-amide]: the IC50 in assay [2] was in the range of 1000 to 5000 nM.

Values taken from patent US20110144128A1, “Heterocyclic Carboxamide Compounds as Steroid Nuclear Receptors Ligands” (EXELIXIS, INC., priority 2005, published 2011).
